{
  "source": "paper PMC8151276",
  "about": "“An Integrated Approach toward NanoBRET Tracers for Analysis of GPCR Ligand Engagement” (Molecules, 2021)",
  "type_in_all_cases": "binding",
  "key": {"CXCR5": {"target": "T1, CXCR5 (Homo sapiens, UniProt P32302)", "T1 construct": "purchased Promega (in-house HiBiT-GPCR construct library, NanoBRET)", "T1 sequence (P32302 1-372)": "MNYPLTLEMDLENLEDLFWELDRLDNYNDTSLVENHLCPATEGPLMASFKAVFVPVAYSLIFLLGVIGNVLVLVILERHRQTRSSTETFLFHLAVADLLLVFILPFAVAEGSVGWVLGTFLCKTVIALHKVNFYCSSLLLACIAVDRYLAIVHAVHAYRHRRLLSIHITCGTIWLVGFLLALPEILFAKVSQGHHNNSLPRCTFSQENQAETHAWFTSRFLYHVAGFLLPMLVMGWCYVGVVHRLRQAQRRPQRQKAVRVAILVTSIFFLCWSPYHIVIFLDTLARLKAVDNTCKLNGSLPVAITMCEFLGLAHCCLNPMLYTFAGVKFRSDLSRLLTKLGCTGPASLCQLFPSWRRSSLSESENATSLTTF", "assay": "NanoBRET screen HiBiT-CXCR5 in HEK293", "method": "(§1) Each tracer candidate was screened across the entire library of HiBiT-GPCR constructs using NanoBRET as the detection modality. As depicted in Figure 4A, the specificity of interactions was evaluated through decrease in BRET due to competitive displacement of a bound tracer by excess parental compound. Each tracer was analyzed for binding to each HiBiT-GPCR fusion in the absence and in the presence of competing parental compound. Briefly, HEK293 cells were transfected with HiBiT-GPCR constructs diluted into promoterless DNA to reduce expression and maximize translocation to the cell surface. Each tracer candidate was then screened at concentrations of 1 μM and 0.1 μM across cells expressing these fusions. Cells were treated for 1.5 h with tracer either alone or in the presence of 20 μM competing parental compound (i.e., control). BRET was measured upon addition of purified LgBiT and subsequent complementation with HiBiT genetically fused to a GPCR. The specificity of interactions was assessed through a decrease in BRET signal due to competitive displacement of the bound tracer. To further gauge the robustness of these interactions, the fold response over the control (i.e., BRETtracer/BRETcontrol) was calculated. We chose a 1.5-fold response, which translates to ≥7-fold signal over noise as the minimal threshold required to score an interaction as positive. […]. Below we highlight the screening results obtained for our exemplary fluorescent tracers based on Clozapine, Amitriptyline and AZD1283.\n(§2) HiBiT-GPCR DNA constructs were diluted in 10 mM Tris pH 8 to a final concentration of 0.01 μg/μL, arrayed in 96-well plates and stored at −20 °C. For transfection, HEK293 cells were suspended in Opti-MEM (without phenol red) supplemented with 2% fetal bovine serum (Seradigm) and 100 units/mL penicillin–streptomycin (Gibco) at a final concentration of 220,000 cells/mL and dispensed into white 96-well plates at 90 μL/well. Subsequent transfections and screens were carried using an Agilent Bravo Automated Liquid Handling Platform. First, the 96-well HiBiT DNA arrays were diluted 25-fold in Opti-MEM (without serum or phenol red) to a final concentration of 0.0004 μg/μL and 20 μL of the diluted DNAs were transferred into new 96-well plates. Next, promoterless carrier DNA (1 μg/μL) was diluted 25-fold (0.04 μg/μL) and then dispensed into the diluted arrays at 20 μL/well. Following brief mixing, Viafect transfection reagent (Promega) diluted 16-fold into Opti-MEM was dispensed into the plates at 40 μL/well. After mixing by pipetting, plates were incubated for 10 min on the pipetting station deck. The DNA-transfection reagent complexes were then added to plates containing cells. To facilitate the screen, 10 μL of DNA-transfection reagent complexes were added in duplicates to the top 4 and bottom 4 rows, resulting in two identical 48-well arrays per plate. Plates with transfected cells were incubated for 18–20 h at 37 °C/5% CO2. A screen of each tracer across the entire library using two different concentrations requires duplicate plates of transfected cells. Depending on the number of tracers being screened, transfections can be scaled up using the same ratios. The next day, for each tracer, four 20× screening solutions in tracer dilution buffer (Promega) were prepared: two duplicates at final concentration of 20 μM and two duplicates at a final concentration of 2 μM. A competing unmodified compound was added to one of each duplicate at a final concentration of 400 μM. The four resulting solutions were diluted 4-fold in Opti-MEM without serum or phenol red to generate 5× solutions (5 µM and 0.5 µM tracer +/− 100 μM competing compound). To screen the library, a BioTek MultiFlo FX liquid dispenser was used to dispense 22.5 µL of tracer solution to the top 4 rows and 22.5 µL tracer + competing compound solution to the 4 bottom rows. Plates were briefly mixed on an orbital shaker and incubated for 1.5 h at room temperature. […]"}, "P2RY4": {"target": "T2, P2RY4 (Homo sapiens, UniProt P51582)", "T2 construct": "purchased Promega (in-house HiBiT-GPCR construct library, NanoBRET)", "T2 sequence (P51582 whole entry)": "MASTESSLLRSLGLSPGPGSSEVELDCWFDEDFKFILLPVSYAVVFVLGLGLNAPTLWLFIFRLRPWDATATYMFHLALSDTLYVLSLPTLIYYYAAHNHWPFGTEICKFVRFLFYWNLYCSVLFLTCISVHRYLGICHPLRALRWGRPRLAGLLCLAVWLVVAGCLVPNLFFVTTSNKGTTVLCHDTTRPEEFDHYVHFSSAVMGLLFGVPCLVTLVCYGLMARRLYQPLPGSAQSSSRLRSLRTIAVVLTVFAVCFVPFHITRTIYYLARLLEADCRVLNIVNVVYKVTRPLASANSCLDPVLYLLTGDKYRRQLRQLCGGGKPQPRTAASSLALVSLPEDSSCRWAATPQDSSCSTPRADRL", "assay": "NanoBRET screen HiBiT-P2RY4 in HEK293", "method": "as §1, §2"}, "NMUR2": {"target": "T3, NMUR2 (Homo sapiens, UniProt Q9GZQ4)", "T3 construct": "purchased Promega (in-house HiBiT-GPCR construct library, NanoBRET)", "T3 sequence (Q9GZQ4 whole entry)": "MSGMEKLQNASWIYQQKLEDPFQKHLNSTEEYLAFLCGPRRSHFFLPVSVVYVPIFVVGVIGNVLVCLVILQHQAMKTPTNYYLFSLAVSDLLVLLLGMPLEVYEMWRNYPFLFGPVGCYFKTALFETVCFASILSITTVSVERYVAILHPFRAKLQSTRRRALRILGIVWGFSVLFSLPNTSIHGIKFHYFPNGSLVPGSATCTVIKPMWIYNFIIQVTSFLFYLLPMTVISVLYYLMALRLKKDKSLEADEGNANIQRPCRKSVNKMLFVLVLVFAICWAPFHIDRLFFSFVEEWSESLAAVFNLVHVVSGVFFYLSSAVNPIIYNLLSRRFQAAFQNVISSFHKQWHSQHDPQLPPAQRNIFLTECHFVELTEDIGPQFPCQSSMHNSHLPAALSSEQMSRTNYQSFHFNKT", "assay": "NanoBRET screen HiBiT-NMUR2 in HEK293", "method": "as §1, §2"}, "[1]": {"conditions": "tracer at 0.1μM, listed as amitriptyline-b-2-NB590"}, "[2]": {"conditions": "tracer at 1μM, listed as amitriptyline-b-2-NB590"}},
  "data": [
    {"compound": "CCOC(=O)c1cc(C#N)c(N2CCC(C(=O)NS(=O)(=O)Cc3ccccc3/C=C/C(=O)NCCNC(=O)CCc3ccc4n3[B-](F)(F)[N+]3=C(c5ccc[nH]5)C=CC3=C4)CC2)nc1C", "note": "[AZD1283-1-NB590]", "values": [
      {"measurement": "NanoBRET Fold Response", "setting": "CXCR5; CXCR5, 0.1μM", "result": 1.04},
      {"measurement": "NanoBRET Fold Response", "setting": "CXCR5; CXCR5, 1μM", "result": 1.12},
      {"measurement": "NanoBRET Fold Response", "setting": "P2RY4; P2RY4, 0.1μM", "result": 1.05},
      {"measurement": "NanoBRET Fold Response", "setting": "P2RY4; P2RY4, 1μM", "result": 1.12},
      {"measurement": "NanoBRET Fold Response", "setting": "NMUR2; NMUR2, 0.1μM", "result": 1.01},
      {"measurement": "NanoBRET Fold Response", "setting": "NMUR2; NMUR2, 1μM", "result": 0.86}
    ]},
    {"compound": "N#CN=C(NCCCOc1cccc(CN2CCCCC2)c1)NCCNC(=O)CCOCCOCCOCCOCCNC(=O)CCc1ccc2n1[B-](F)(F)[N+]1=C(c3ccc[nH]3)C=CC1=C2", "note": "[Aminopotentidine-2-NB590]", "values": [
      {"measurement": "NanoBRET Fold Response", "setting": "CXCR5; CXCR5, tracer 0.1μM", "result": 1.04},
      {"measurement": "NanoBRET Fold Response", "setting": "CXCR5; CXCR5, tracer 1μM", "result": 0.99},
      {"measurement": "NanoBRET Fold Response", "setting": "P2RY4; P2RY4, tracer 0.1μM", "result": 1.09},
      {"measurement": "NanoBRET Fold Response", "setting": "P2RY4; P2RY4, tracer 1μM", "result": 1.07},
      {"measurement": "NanoBRET Fold Response", "setting": "NMUR2; NMUR2, tracer 0.1μM", "result": 1.02},
      {"measurement": "NanoBRET Fold Response", "setting": "NMUR2; NMUR2, tracer 1μM", "result": 1.05}
    ]},
    {"compound": "CN(C)CCC=C1c2ccccc2CCc2ccc(C(=O)NCCNC(=O)CCOCCOCCOCCOCCNC(=O)CCc3ccc4n3[B-](F)(F)[N+]3=C(c5ccc[nH]5)C=CC3=C4)cc21", "note": "[Amitriptyline-a-2-NB590]", "values": [
      {"measurement": "NanoBRET Fold Response", "setting": "CXCR5; tracer at 0.1μM", "result": 1.04},
      {"measurement": "NanoBRET Fold Response", "setting": "CXCR5; tracer at 1μM", "result": 1.01},
      {"measurement": "NanoBRET Fold Response", "setting": "P2RY4; tracer at 0.1μM", "result": 1.01},
      {"measurement": "NanoBRET Fold Response", "setting": "P2RY4; tracer at 1μM", "result": 1.02},
      {"measurement": "NanoBRET Fold Response", "setting": "NMUR2; tracer at 0.1μM", "result": 1.00},
      {"measurement": "NanoBRET Fold Response", "setting": "NMUR2; tracer at 1μM", "result": 1.02}
    ]},
    {"compound": "CN(C)CCC=C1c2ccccc2CCc2ccc(C(=O)NCCNC(=O)CCOCCOCCOCCOCCNC(=O)CCc3ccc4n3[B-](F)(F)[N+]3=C(c5ccc[nH]5)C=CC3=C4)cc21", "note": "[Amitriptyline-b-2-NB590]", "values": [
      {"measurement": "NanoBRET Fold Response", "setting": "CXCR5; [1]", "result": 1.39},
      {"measurement": "NanoBRET Fold Response", "setting": "CXCR5; [2]", "result": 1.19},
      {"measurement": "NanoBRET Fold Response", "setting": "P2RY4; [1]", "result": 1.07},
      {"measurement": "NanoBRET Fold Response", "setting": "NMUR2; [1]", "result": 0.99},
      {"measurement": "NanoBRET Fold Response", "setting": "NMUR2; [2]", "result": 1.00}
    ]},
    {"compound": "CN(CCC=C1c2ccccc2CCc2ccccc21)C(=O)CCOCCOCCOCCOCCNC(=O)CCc1ccc2n1[B-](F)(F)[N+]1=C(c3ccc[nH]3)C=CC1=C2", "note": "[Amitriptyline-e-2-NB590]", "values": [
      {"measurement": "NanoBRET Fold Response", "setting": "CXCR5; tracer at 1μM", "result": 0.98},
      {"measurement": "NanoBRET Fold Response", "setting": "P2RY4; tracer at 1μM", "result": 1.04}
    ]},
    {"compound": "COc1ccc2c(n1)c(CCNC(C)=O)cn2CCNC(=O)CCc1ccc2n1[B-](F)(F)[N+]1=C(c3ccc[nH]3)C=CC1=C2", "note": "[Azamelatonin-1-NB590]", "values": [
      {"measurement": "NanoBRET Fold Response", "setting": "CXCR5; 0.1μM tracer", "result": 0.93},
      {"measurement": "NanoBRET Fold Response", "setting": "CXCR5; 1μM tracer", "result": 1.19},
      {"measurement": "NanoBRET Fold Response", "setting": "P2RY4; 0.1μM tracer", "result": 1.10},
      {"measurement": "NanoBRET Fold Response", "setting": "P2RY4; 1μM tracer", "result": 1.10},
      {"measurement": "NanoBRET Fold Response", "setting": "NMUR2; 0.1μM tracer", "result": 1.00},
      {"measurement": "NanoBRET Fold Response", "setting": "NMUR2; 1μM tracer", "result": 1.16}
    ]},
    {"compound": "COc1ccc2[nH]c(-c3ccc(CNC(=O)CCOCCOCCOCCOCCNC(=O)CCc4ccc5n4[B-](F)(F)[N+]4=C(c6ccc[nH]6)C=CC4=C5)cc3)c(CCNC(C)=O)c2n1", "note": "[AzomelatoninICO9-2-NB590]", "values": [
      {"measurement": "NanoBRET Fold Response", "setting": "CXCR5; 0.1μM tracer", "result": 1.36},
      {"measurement": "NanoBRET Fold Response", "setting": "CXCR5; 1μM tracer", "result": 0.90},
      {"measurement": "NanoBRET Fold Response", "setting": "P2RY4; 0.1μM tracer", "result": 1.03},
      {"measurement": "NanoBRET Fold Response", "setting": "P2RY4; 1μM tracer", "result": 1.13},
      {"measurement": "NanoBRET Fold Response", "setting": "NMUR2; 0.1μM tracer", "result": 0.71},
      {"measurement": "NanoBRET Fold Response", "setting": "NMUR2; 1μM tracer", "result": 0.99}
    ]},
    {"compound": "O=C(CCOCCOCCOCCOCCNC(=O)CCc1ccc2n1[B-](F)(F)[N+]1=C(c3ccc[nH]3)C=CC1=C2)NCCCN1CCN(C2=Nc3cc(Cl)ccc3Nc3ccccc32)CC1", "note": "[Clozapine-a-2-NB590]", "values": [
      {"measurement": "NanoBRET Fold Response", "setting": "CXCR5; CXCR5, 0.1μM tracer", "result": 1.06},
      {"measurement": "NanoBRET Fold Response", "setting": "CXCR5; CXCR5, 1μM tracer", "result": 1.01},
      {"measurement": "NanoBRET Fold Response", "setting": "P2RY4; P2RY4, 0.1μM tracer", "result": 1.09},
      {"measurement": "NanoBRET Fold Response", "setting": "P2RY4; P2RY4, 1μM tracer", "result": 0.96},
      {"measurement": "NanoBRET Fold Response", "setting": "NMUR2; NMUR2, 0.1μM tracer", "result": 0.93},
      {"measurement": "NanoBRET Fold Response", "setting": "NMUR2; NMUR2, 1μM tracer", "result": 1.01}
    ]}
  ]
}
